Test results reported in PubChem BioAssay (NCI).
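Assay format: 96-well plates, 48-hour exposure. Abbreviation: GI50, concentration required for 50% inhibition of growth. The concentration for full growth arrest is given as TGI.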

Tests used:
Experiment in all cases: NCI-60 cell line screen, 48 h
DLD-1 colon = tested on: DLD-1 colon
DMS 114 small cell lung = tested on: DMS 114 small cell lung
DMS 273 small cell lung = tested on: DMS 273 small cell lung
KM20L2 colon = tested on: KM20L2 colon
M19-MEL melanoma = tested on: M19-MEL melanoma
OVCAR-8 ovarian = tested on: OVCAR-8 ovarian
SF-295 CNS = tested on: SF-295 CNS
SK-OV-3 ovarian = tested on: SK-OV-3 ovarian
SNB-78 CNS = tested on: SNB-78 CNS
U251 CNS = tested on: U251 CNS
LXFL 529 NSCLC = tested on: LXFL 529 NSCLC

| Compound | TGI (OVCAR-8 ovarian) [µM] | TGI (SF-295 CNS) [µM] | TGI (SK-OV-3 ovarian) [µM] | TGI (U251 CNS) [µM] | other results |
| --- | --- | --- | --- | --- | --- |
| O=C(/C=C/c1ccc(O)c(O)c1)c1ccc(O)cc1O | 51 | 50.3 | 38 | 17.6 | TGI (DLD-1 colon): 29.3 µM; TGI (DMS 114 small cell lung): 7.55 µM; TGI (DMS 273 small cell lung): 25 µM; TGI (KM20L2 colon): 31.3 µM; TGI (M19-MEL melanoma): 27.1 µM; TGI (SNB-78 CNS): 58.3 µM |
| COc1ccc2nc3c([N+](=O)[O-])ccc4c3c(c2c1)N=CN4CCN(C)C | 19.3 | 21.7 | 28.9 | 24.5 | – |
| O=[N+]([O-])c1ccc(C2NC(=S)NC3c4cc([N+](=O)[O-])ccc4CCCC23)cc1 (stereo not drawn) | > 100 | > 100 | > 100 | > 100 | – |
| Nc1nc(N)c2c(-c3ccccc3)ccnc2n1 | – | > 100 | > 100 | > 100 | – |
| CCOC(=O)Cc1ccc(Nc2nc3cc(F)c(F)cc3nc2C(=O)OCC)cc1 | > 100 | > 100 | > 100 | > 100 | – |
| Oc1ccccc1CNCc1ccccc1O | > 100 | > 100 | > 100 | > 100 | – |
| Oc1c(Cl)c(Cl)c(O)c(-c2cnc(-c3ncc(-c4c(O)c(Cl)c(Cl)c(O)c4Cl)s3)s2)c1Cl | 52.7 | 41.9 | > 100 | 48.7 | – |
| CCCCCCC(O)C(=O)OC1C2C(CC1(C)C)C(O)C13OC1C(O)C1(CO1)[C@@]23C (stereo partly drawn) | > 100 | > 100 | > 100 | > 100 | – |
| COc1cc(Cn2c3ccccc3c3cc(C)cc(OC)c32)cc2c1[nH]c1ccccc12 | > 25 | – | > 25 | > 25 | TGI (DLD-1 colon): > 25 µM; TGI (DMS 114 small cell lung): > 25 µM; GI50 (DMS 273 small cell lung): 15.2 µM; TGI (DMS 273 small cell lung): > 25 µM; GI50 (KM20L2 colon): 15.4 µM; TGI (KM20L2 colon): > 25 µM; GI50 (LXFL 529 NSCLC): 17 µM; TGI (LXFL 529 NSCLC): > 25 µM; TGI (M19-MEL melanoma): > 25 µM; TGI (SNB-78 CNS): > 25 µM |
| O=c1[nH]c(Br)nc2n[nH]nc12 | > 100 | > 100 | > 100 | > 100 | – |
| CC(C)(C)c1cc(OCc2n[nH]c(=S)n2N)c(Cl)cc1OCc1n[nH]c(=S)n1N | > 100 | > 100 | > 100 | > 100 | – |
| c1cc2cc(Cc3ccc4[nH]ccc4c3)ccc2[nH]1 | – | 78.9 | 47.8 | 38.5 | – |
| CCOC(=O)CN1C(=O)c2c(NC(=O)C(=O)O)cccc2S1(=O)=O | > 100 | > 100 | > 100 | > 100 | – |
| O=C(NCCCN1CCN(CCCNC(=O)c2cc(-c3ccccc3)nc3ccccc23)CC1)c1cc(-c2ccccc2)nc2ccccc12 | 29.7 | 31.6 | 40.2 | 30.7 | – |
| COc1cccc(C2c3cc4c(cc3OC(NNC(N)=O)C2C)OCO4)c1OC (stereo not drawn) | 17.9 | 43.3 | 85.3 | 68.2 | – |
